How the values were obtained:
CCRF-CEM [1] = assay: Inhibitory activity against CCRF-CEM tumor cell growth in culture; assay type: functional, cell-based; conditions: Homo sapiens
Dihydrofolate reductase [2] = biological target: T1, Dihydrofolate reductase (Rattus norvegicus, UniProt Q920D2)
T1 sequence (Q920D2 whole entry): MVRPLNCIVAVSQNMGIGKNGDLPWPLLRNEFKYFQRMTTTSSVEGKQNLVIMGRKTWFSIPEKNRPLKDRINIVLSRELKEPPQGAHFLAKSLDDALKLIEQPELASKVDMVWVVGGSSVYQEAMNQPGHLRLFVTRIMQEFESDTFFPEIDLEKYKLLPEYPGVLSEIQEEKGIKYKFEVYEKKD
Description: Inhibitory concentration for DHFR in rat liver

SK-5 = assay: Inhibitory activity against melanoma SK-5 tumor cell growth in culture; assay type: functional, cell-based; conditions: Homo sapiens
Dihydrofolate reductase [3] = biological target: T2, Dihydrofolate reductase (Homo sapiens, UniProt P00374); assay: Inhibitory concentration for DHFR in recombinant human
T2 sequence (P00374 whole entry): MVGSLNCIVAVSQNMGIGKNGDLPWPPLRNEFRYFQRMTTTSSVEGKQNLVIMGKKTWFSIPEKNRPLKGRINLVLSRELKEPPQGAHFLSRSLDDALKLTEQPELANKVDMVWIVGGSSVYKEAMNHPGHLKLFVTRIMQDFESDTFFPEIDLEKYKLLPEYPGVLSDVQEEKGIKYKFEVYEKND

ACHN = assay: Inhibitory activity against kidney A-CHN tumor cell growth in culture; assay type: functional, cell-based; conditions: Homo sapiens
[4] = biological target: T3, Bifunctional dihydrofolate reductase-thymidylate synthase (Toxoplasma gondii, UniProt Q07422)
T3 sequence (Q07422 whole entry): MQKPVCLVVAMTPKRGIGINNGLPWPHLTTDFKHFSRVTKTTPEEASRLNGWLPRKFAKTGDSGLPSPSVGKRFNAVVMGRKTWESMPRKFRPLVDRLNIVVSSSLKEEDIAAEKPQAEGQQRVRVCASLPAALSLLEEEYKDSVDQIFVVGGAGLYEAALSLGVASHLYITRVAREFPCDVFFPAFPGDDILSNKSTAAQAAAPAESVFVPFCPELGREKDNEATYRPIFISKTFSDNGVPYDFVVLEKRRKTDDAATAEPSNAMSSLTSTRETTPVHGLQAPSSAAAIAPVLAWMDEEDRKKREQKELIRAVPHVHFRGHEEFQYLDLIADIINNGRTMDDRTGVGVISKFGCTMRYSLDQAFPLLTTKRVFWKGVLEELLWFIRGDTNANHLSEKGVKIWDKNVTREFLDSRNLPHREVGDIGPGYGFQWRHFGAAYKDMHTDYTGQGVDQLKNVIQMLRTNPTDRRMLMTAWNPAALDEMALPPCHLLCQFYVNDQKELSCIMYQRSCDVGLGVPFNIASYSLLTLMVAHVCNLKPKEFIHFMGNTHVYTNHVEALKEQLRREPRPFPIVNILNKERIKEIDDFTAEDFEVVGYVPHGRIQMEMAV
Description: Inhibitory concentration for DHFR in Toxoplasma gondii

Dihydrofolate reductase [5] = biological target: Dihydrofolate reductase (Lactobacillus casei, UniProt P00381)
Sequence of Dihydrofolate reductase (Lactobacillus casei, UniProt P00381) (P00381 whole entry): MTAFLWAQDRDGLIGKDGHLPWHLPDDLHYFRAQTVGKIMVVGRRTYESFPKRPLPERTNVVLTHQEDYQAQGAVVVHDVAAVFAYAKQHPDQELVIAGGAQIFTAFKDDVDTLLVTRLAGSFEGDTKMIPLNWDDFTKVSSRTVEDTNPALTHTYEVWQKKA
Description: Inhibitory concentration for DHFR in Lactobacillus casei

Dihydrofolate reductase [6] = biological target: T4, Dihydrofolate reductase (Pneumocystis carinii, UniProt P16184); assay: Inhibitory concentration for DHFR in Pneumocystis carinii
T4 sequence (P16184 whole entry): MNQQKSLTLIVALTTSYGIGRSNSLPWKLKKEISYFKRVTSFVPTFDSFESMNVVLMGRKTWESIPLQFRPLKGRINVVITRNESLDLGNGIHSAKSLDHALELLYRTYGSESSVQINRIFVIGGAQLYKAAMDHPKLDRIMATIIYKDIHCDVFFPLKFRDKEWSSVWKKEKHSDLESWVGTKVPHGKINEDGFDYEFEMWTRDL

FaDu [7] = assay: Protection of FaDu cells from growth inhibitory effects of compound by 40 uM thymidine (TdR); assay type: functional, Homo sapiens; design: scale not given: the % may be the effect or the level left
FaDu [8] = assay: Protection of FaDu cells from growth inhibitory effects of compound by 10 uM leucovorin (LV); assay type: functional, Homo sapiens; design: scale not given: the % may be the effect or the level left
FaDu [9] = assay: Protection of FaDu cells from growth inhibitory effects of compound by combination of 50 uM hypoxanthine (Hx) and 40 uM thymidine (TdR); assay type: functional, Homo sapiens; design: scale not given: the % may be the effect or the level left
R30dm-CCRF-CEM [10] = assay: the growth inhibition of, (during continuous exposure) methotrexate resistant human T-lymphoblastic leukemia cell subline R30dm at resistance mechanism - decreased FPGS; assay type: functional, cell-based
FaDu [11] = assay: Protection of FaDu cells from growth inhibitory effects of compound by 50 uM hypoxanthine (Hx); assay type: functional, Homo sapiens; design: scale not given: the % may be the effect or the level left
FaDu [12] = assay: Protection of FaDu cells from growth inhibitory effects of compound with no addition; assay type: functional, Homo sapiens; design: scale not given: the % may be the effect or the level left
FaDu [13] = assay: the growth inhibition of, (during continuous exposure) human squamous cell carcinoma FaDu at resistance mechanism - sensitive
Homo sapiens = species on record: Homo sapiens; assay: (§1) Activity is determined as substrate for CCRF-CEM human leukemia cell folyl-poly-glutamate synthetase; assay type: ADME
[14] = tested on: folylpolyglutamate synthetase (FPGS); assay: as §1; assay type: ADME; conditions: folylpolyglutamate synthetase from CCRF-CEM leukemia cells
CCRF-CEM [15] = assay: Growth inhibition of human T-lymphoblastic leukemia cell line CCRF-CEM; assay type: functional, cell-based
MCF7 = assay: Growth inhibitory concentration against tumor cells in culture breast cancer cell line, MCF-7; assay type: functional, Homo sapiens
Thymidylate synthase [16] = biological target: Thymidylate synthase (Homo sapiens, UniProt P04818); assay: Inhibitory concentration for TS in human
Sequence of Thymidylate synthase (Homo sapiens, UniProt P04818) (P04818 whole entry): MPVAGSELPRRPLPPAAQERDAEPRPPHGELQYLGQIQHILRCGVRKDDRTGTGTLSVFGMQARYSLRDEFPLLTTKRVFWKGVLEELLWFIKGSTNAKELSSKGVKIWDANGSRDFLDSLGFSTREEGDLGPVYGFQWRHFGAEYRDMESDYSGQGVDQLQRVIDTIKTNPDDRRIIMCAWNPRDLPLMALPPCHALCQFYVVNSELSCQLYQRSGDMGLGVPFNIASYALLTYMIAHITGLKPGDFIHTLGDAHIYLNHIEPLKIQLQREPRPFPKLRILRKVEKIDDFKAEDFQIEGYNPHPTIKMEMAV

Thymidylate synthase [17] = biological target: Thymidylate synthase (Lactobacillus casei, UniProt P00469); assay: Inhibitory concentration for TS in Lactobacillus casei; design: species or system Lacticaseibacillus casei
Sequence of Thymidylate synthase (Lactobacillus casei, UniProt P00469) (P00469 whole entry): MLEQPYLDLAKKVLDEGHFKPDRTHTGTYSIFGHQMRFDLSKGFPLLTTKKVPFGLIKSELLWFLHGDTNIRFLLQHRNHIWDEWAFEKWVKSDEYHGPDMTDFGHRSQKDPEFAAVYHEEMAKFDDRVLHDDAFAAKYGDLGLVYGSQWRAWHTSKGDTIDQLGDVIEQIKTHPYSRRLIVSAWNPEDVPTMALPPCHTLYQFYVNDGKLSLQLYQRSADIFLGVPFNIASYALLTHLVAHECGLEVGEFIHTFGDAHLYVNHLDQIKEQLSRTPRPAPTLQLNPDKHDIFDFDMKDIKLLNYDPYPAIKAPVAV

K562 = assay: Growth inhibitory concentration against tumor cells in culture leukemia cell line, K-562; assay type: functional, Homo sapiens
PC-3 = assay: Growth inhibitory concentration against tumor cells in culture prostate cancer PC-3; assay type: functional, Homo sapiens
IGROV-1 = assay: Growth inhibitory concentration against tumor cells in culture ovarian cancer IGROV-1; assay type: functional, Homo sapiens
MDA-N = assay: Growth inhibitory concentration against tumor cells in culture breast cancer cell line, MDA-N; assay type: functional, Homo sapiens
CCRF-CEM [18] = assay: Growth inhibition of methotrexate resistant human T-lymphoblastic leukemia cell subline CEM/MTX; assay type: functional, cell-based
HCT-116 = assay: Growth inhibitory concentration against tumor cells in culture colon cancer HCT116; assay type: functional, Homo sapiens
R30dm-CCRF-CEM [19] = assay: Growth inhibition of methotrexate resistant human T-lymphoblastic leukemia cell subline R30dm; assay type: functional, cell-based
U-251 = assay: Growth inhibitory concentration against tumor cells in cultureCNS cancer cell line, U-251; assay type: functional, Homo sapiens
786-0 = assay: Growth inhibitory concentration against tumor cells in culture renal cancer […] cell line; assay type: functional, Homo sapiens
HL-60 = assay: Growth inhibitory concentration against tumor cells in culture leukemia cell line, HL-60(TB); assay type: functional, Homo sapiens
NCI-H460 = assay: Growth inhibitory concentration against tumor cells in culture non-small-cell-lung NCI-H460; assay type: functional, Homo sapiens
FaDu [20] = assay: Growth inhibition of human squamous cell carcinoma FaDu; assay type: functional, cell-based
LOX IMVI = assay: Growth inhibitory concentration against tumor cells in culture melanoma LOX-IMVI; assay type: functional, Homo sapiens
MDA-MB-435 = assay: Growth inhibitory concentration against tumor cells in culture breast cancer cell line, MDA-MB-435; assay type: functional, Homo sapiens
SF-268 = assay: Growth inhibitory concentration against tumor cells in culture CNS cancer cell line, SF-268; assay type: functional, Homo sapiens

Row | SMILES | IC50 (CCRF-CEM [1]) | IC50 (Dihydrofolate reductase [2]) | IC50 (SK-5) | IC50 (Dihydrofolate reductase [3]) | IC50 (ACHN) | IC50 [4] | IC50 (Dihydrofolate reductase [5]) | IC50 (Dihydrofolate reductase [6]) | Control (FaDu [7]) | Control (FaDu [8]) | Control (FaDu [9]) | Control (FaDu [11]) | Control (FaDu [12]) | Vmax (Homo sapiens) | Km [14] | also measured
1 | COc1cc(NCc2coc3nc(N)nc(N)c23)cc(OC)c1OC | 111 µM | > 37 µM | > 130 µM | > 26 µM | > 130 µM | 4 µM | > 26 µM | > 4 µM |  |  |  |  |  |  |  | 
2 | CN(Cc1cnc2nc(N)nc(N)c2n1)c1ccc(C(=O)N[C@@H](CCC(=O)O)C(=O)O)cc1 [METHOTREXATE] |  |  |  |  |  |  |  |  | 7.3% | 114% | 98% | 11% | 2.5% |  |  | EC50 (R30dm-CCRF-CEM [10]): 0.018 µM; EC50 (FaDu [13]): 0.019 µM
3 | Nc1nc(N)c2nc(CNc3ccc(C(=O)N[C@@H](CCC(=O)O)C(=O)O)cc3)cnc2n1 [AMINOPTERIN] |  |  |  |  |  |  |  |  |  |  |  |  |  | 1 rel | 6.8 µM | 
4 | Nc1nc(N)c2c(CNc3ccc(C(=O)NC(CCC(=O)O)C(=O)O)cc3)coc2n1 (configuration not stated) | 0.59 µM | 1.3 µM | > 100 µM | 0.45 µM | > 100 µM | 0.7 µM | 0.56 µM | 0.9 µM | 18.4% | 110% | 82% | 4.5% | 4.9% | 0.45 rel | 1.9 µM | EC50 (CCRF-CEM [15]): 0.142 µM; IG50 (MCF7): 6.31 µM; IC50 (Thymidylate synthase [16]): > 200 µM; IC50 (Thymidylate synthase [17]): > 200 µM; IG50 (K562): 0.06 µM; IG50 (PC-3): 0.7 µM; IG50 (IGROV-1): >100 µM; IG50 (MDA-N): 1.73 µM; EC50 (CCRF-CEM [18]): 3.17 µM; IG50 (HCT-116): 0.09 µM; EC50 (R30dm-CCRF-CEM [19]): 0.663 µM; IG50 (U-251): 1.97 µM; IG50 (786-0): 0.91 µM; IG50 (HL-60): 0.02 µM; IG50 (NCI-H460): 3.75 µM; EC50 (FaDu [20]): 0.126 µM; IG50 (LOX IMVI): 1.23 µM; IG50 (MDA-MB-435): 45.8 µM; IG50 (SF-268): 1.77 µM
5 | Nc1nc(N)c2c(CNc3cc(Cl)c(Cl)c(Cl)c3)coc2n1 | 10.6 µM | 25.6 µM | 47.6 µM | > 25 µM | 40.9 µM | > 3.9 µM | > 25 µM | 8.3 µM |  |  |  |  |  |  |  | 
6 | Nc1nc(N)c2c(CNc3ccc(Cl)c(Cl)c3)coc2n1 | 40.9 µM | 35.2 µM | > 150 µM | > 15 µM | > 150 µM |  | > 3 µM | > 35 µM |  |  |  |  |  |  |  | 
7 | COc1ccc(OC)c(NCc2coc3nc(N)nc(N)c23)c1 | 132 µM | > 21 µM | > 160 µM | > 15 µM | > 160 µM | > 21 µM | > 31 µM | > 21 µM |  |  |  |  |  |  |  | 
8 | CN(Cc1coc2nc(N)nc(N)c12)c1ccc(C(=O)NC(CCC(=O)O)C(=O)O)cc1 (configuration not stated) | 0.043 µM | 0.43 µM | 14 µM |  | 0.837 µM | 19.8 µM | 0.22 µM | 0.035 µM | 17.1% | 106% | 80% | 1.9% | 6.6% | 0.75 rel | 4.65 µM | EC50 (CCRF-CEM [15]): 0.047 µM; IG50 (MCF7): 0.08 µM; IC50 (Thymidylate synthase [16]): > 200 µM; IC50 (Thymidylate synthase [17]): > 200 µM; IG50 (K562): 0.024 µM; IG50 (PC-3): <0.01 µM; IG50 (IGROV-1): 0.73 µM; IG50 (MDA-N): 0.065 µM; EC50 (CCRF-CEM [18]): 2.27 µM; IG50 (HCT-116): 0.02 µM; EC50 (R30dm-CCRF-CEM [19]): 1.03 µM; IG50 (U-251): 0.75 µM; IG50 (786-0): 0.07 µM; IG50 (HL-60): <0.01 µM; IG50 (NCI-H460): 0.15 µM; EC50 (FaDu [20]): 0.055 µM; IG50 (LOX IMVI): 0.04 µM; IG50 (MDA-MB-435): 0.09 µM; IG50 (SF-268): 0.59 µM

From ChEMBL document CHEMBL1127819, “Classical and nonclassical furo[2,3-d]pyrimidines as novel antifolates: synthesis and biological activities” (J Med Chem, 1994)
